How the values were obtained:
[1] = molecular target: T1, JMJD2A (Homo sapiens, UniProt O75164); experiment: ITC binding to JMJD2A; conditions: Fig. 1c
T1 construct: JMJD2A (aa 897–1101); His (N, cleaved yes); made in house; host or cells: E. coli BL21 (DE3) Codon plus RIL
Excerpt: (§1) The coding DNA fragments of following Tudor domains were cloned into pET28-MHL vector: SMN (aa 82–147), UHRF1 (aa 126–285), SMNDC1 (aa 53–130), TDRD3 (aa 554–611), SND1 (aa 650–910), TDRD2 (aa 327–420), FXR1 (aa 2–132), PHF1 (aa 28–87), SGF29 (aa 115–293), JMJD2A (aa 897–1101), 53BP1 (aa 1483–1606), SETDB1 (aa 190–410), LBR (aa 1–67), ZGPAT (aa 120–271). The coding regions of chromodomain of CBX7 (aa 8–62), PWWP domain of DNMT3A (aa 275–417), WD40 repeats of WDR5 (aa 24–334) and CW domain of ZCWPW2 (aa 21–78) were also subcloned into pET28-MHL vector to generate N-terminally His-tagged fusion protein. The MBT repeats of L3MBTL1 (aa 200–522) and L3MBTL2 (aa 170–625) were subcloned into pET28GST-LIC vector to generate N-terminally GST-His-tagged fusion protein. All the plasmids were generated by ligase independent cloning (Vazyme Biotech, C112 or ABclonal Technology, RK21020). […] The molecular weight of all protein samples was measured by mass spectrometry.
(§2) For the ITC measurement, the concentrated proteins were diluted into 20 mM Tris-HCl, pH 7.5, 150 mM NaCl (ITC buffer); the lyophilized compounds were dissolved in the same buffer, and the pH value was adjusted by adding 2 M NaOH or 2 M HCl. […] Compound concentrations were calculated from the mass and the volume of the solvent. […]

[2] = molecular target: T2, TDRD3_Y566W (Homo sapiens, UniProt Q9H7E2, Y566W); experiment: ITC binding to TDRD3 mutant Y566W; conditions: Supplementary Fig. 11b, iTC-200; read-out: Kd, ITC binding curve, TDRD3_Y566W
T2 construct: TDRD3 (aa 554–611); His (N, cleaved yes); made in house; host or cells: E. coli BL21 (DE3) Codon plus RIL
T2 sequence (Q9H7E2 554-611 Y566W): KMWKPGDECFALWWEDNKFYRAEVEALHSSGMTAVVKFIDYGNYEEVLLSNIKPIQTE
Excerpt: as §1, §2

[3] = molecular target: T3, LBR (Homo sapiens, UniProt Q14739); experiment: ITC binding to LBR; conditions: Fig. 1c
T3 construct: LBR (aa 1–67); His (N, cleaved yes); made in house; host or cells: E. coli BL21 (DE3) Codon plus RIL
T3 sequence (Q14739 1-67): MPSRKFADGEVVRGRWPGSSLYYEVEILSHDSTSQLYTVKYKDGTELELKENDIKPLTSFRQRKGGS
Excerpt: as §1, §2

T1 sequence (O75164 897-1064): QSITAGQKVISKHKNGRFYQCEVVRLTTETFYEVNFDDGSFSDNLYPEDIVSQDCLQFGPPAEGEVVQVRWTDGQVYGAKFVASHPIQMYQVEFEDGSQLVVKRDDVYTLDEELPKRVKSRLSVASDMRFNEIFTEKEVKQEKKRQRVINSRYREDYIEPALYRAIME

## Cn1c2c(c(=N)c3c1CCC3)CCC2 [Compound 1, 4-methyl-2,3,4,5,6,7-hexahydrodicyclopenta[b,e]pyridin-8(1H)-imine]
[1]
  Kd: > 244 µM
[2]
  Kd: 3.8 ± 0.4 µM
[3]
  Kd: > 244 µM
